Data taken from US8420592B2, “Methods of treatment using single doses of oritavancin” (The Medicines Company, priority 2008, dated 2013).
Read-outs that look alike come from different tables or passages of the source.

Assay: clinical
Type: in vivo, human
Description: A pharmacokinetic (PK) analysis was conducted of oritavancin from patients having complicated skin and skin structure infections (cSSSI) or bacteremia. The population for the analysis consisted of oritavancin-treated subjects and patients from 12 studies, consisting of nine Phase 1 studies, two Phase 2 studies, and one Phase 2/3 study. Oritavancin was administered as both single- and multiple-dose intravenous (IV) infusions in fixed doses ranging from 100 to 800 mg or weight-based doses ranging from 0.02 to 10 mg/kg.
Results: The final analysis population contained data from a total of 560 subjects: 200 from the Phase 1 studies, 86 from the Phase 2 bacteremia study, 29 from the Phase 2 cSSSI study, and 245 from the Phase 2/3 cSSSI study. The final pharmacokinetic analysis dataset contained a total of 6,336 oritavancin plasma concentrations, collected from these 560 subjects, of which 6,290 oritavancin concentrations were included in the results. The majority of subjects (>90%) contributed at least six samples to the population pharmacokinetic analysis.
A wide range of oritavancin doses was administered across the studies included in the population PK analysis, where 42% (236 of 560) of subjects received ≧400 mg, while 25% (142 of 560) received 800 mg or more. A histogram of the oritavancin doses administered is shown in FIG. 6, with midpoint values for each dose range shown over each bar. The duration over which oritavancin was infused ranged from 0.13 to 6.5 hr across all studies; however, oritavancin was administered over 1 hr for the majority of subjects. Histograms of the actual infusion durations and rates are shown in FIGS. 7 and 8, respectively, with midpoint values shown for each infusion duration or rate over each bar.
The final structural PK model for oritavancin in this analysis was a three-compartment model (one central, two peripheral) with a zero-order intravenous infusion rate and first-order, linear elimination. The model fit the data well (data not shown), regardless of the observed concentration or administered dose. If a nonlinear model had been necessary, there would have been significant bias in the weighted residuals at the lowest and/or highest concentrations and/or doses. No trends for decreasing CL with increasing dose were found.

SMILES: CN[C@H](CC(C)C)C(=O)N[C@H]1C(=O)N[C@@H](CC(N)=O)C(=O)N[C@H]2C(=O)N[C@H]3C(=O)N[C@H](C(=O)N[C@H](C(=O)O)c4cc(O)cc(O)c4-c4cc3ccc4O)[C@H](O[C@H]3C[C@](C)(N)[C@@H](O)[C@H](C)O3)c3ccc(c(Cl)c3)Oc3cc2cc(c3O[C@@H]2O[C@H](CO)[C@@H](O)[C@H](O)[C@H]2O[C@H]2C[C@](C)(NCc3ccc(-c4ccc(Cl)cc4)cc3)[C@@H](O)[C@H](C)O2)Oc2ccc(cc2Cl)[C@H]1O [Oritavancin, N-(4-(4-chlorophenyl)benzyl)A82846B]
- Cmin, Mean (180-330 mg/day (n = 140)): 2580 ng/mL
- Cmin, Median (180-330 mg/day (n = 140)): 2200 ng/mL
- Cmin, Mean (<180 mg/day (n = 181)): 1170 ng/mL
- Cmin, Median (<180 mg/day (n = 181)): 949 ng/mL
- Cmin, Mean (>330 mg/day (n = 239)): 12500 ng/mL
- Cmin, Median (>330 mg/day (n = 239)): 11000 ng/mL
- Vc (healthy subjects, Multiple Dose (n = 109)): 5.10 L
- Cmin (healthy subjects, Multiple Dose (n = 109), normalized to a dose of 200 mg, after a median of 4 (2-14) days): 11500 ng/mL
- Vc (healthy subjects, Single Dose (n = 91)): 5.30 L
- Cmin (healthy subjects, Single Dose (n = 91), normalized to a dose of 200 mg): 3300 ng/mL
- Plasma half-life (human, in vivo): prolonged
- AUC(0-t) (human, in vivo, 200 mg, healthy subjects, Multiple Dose (n = 109), normalized to a dose of 200 mg, after a median of 4 (2-14) days, read-out: AUC0-24): 459 µg·h/mL
- Cmax (human, in vivo, 200 mg, healthy subjects, Multiple Dose (n = 109), normalized to a dose of 200 mg, after a median of 4 (2-14) days, read-out: Cmax): 46800 ng/mL
- AUC(0-t) (human, in vivo, 200 mg, healthy subjects, Single Dose (n = 91), normalized to a dose of 200 mg, read-out: AUC0-24): 216 µg·h/mL
- Cmax (human, in vivo, 200 mg, healthy subjects, Single Dose (n = 91), normalized to a dose of 200 mg, read-out: Cmax): 33900 ng/mL
- AUC(0-t) (human, in vivo, 180-330 mg/day (n = 140), read-out: AUC0-24, Mean): 181 µg·h/mL
- AUC(0-t) (human, in vivo, 180-330 mg/day (n = 140), read-out: AUC0-24, Median): 171 µg·h/mL
- clearance (human, in vivo, 180-330 mg/day (n = 140), read-out: CL, Mean (converted)): 9.57 mL/min
- clearance (human, in vivo, 180-330 mg/day (n = 140), read-out: CL, Median (converted)): 9.07 mL/min
- Cmax (human, in vivo, 180-330 mg/day (n = 140), read-out: Cmax, Mean): 33400 ng/mL
- Cmax (human, in vivo, 180-330 mg/day (n = 140), read-out: Cmax, Median): 30000 ng/mL
- half-life (human, in vivo, 180-330 mg/day (n = 140), read-out: T1/2, α, Mean (converted)): 2.13 h
- half-life (human, in vivo, 180-330 mg/day (n = 140), read-out: T1/2, α, Median (converted)): 2.13 h
- half-life (human, in vivo, 180-330 mg/day (n = 140), read-out: T1/2, β, Mean (converted)): 29.7 h
- half-life (human, in vivo, 180-330 mg/day (n = 140), read-out: T1/2, β, Median (converted)): 29.3 h
- half-life (human, in vivo, 180-330 mg/day (n = 140), read-out: T1/2, γ, Mean (converted)): 376 h
- half-life (human, in vivo, 180-330 mg/day (n = 140), read-out: T1/2, γ, Median (converted)): 373 h
- AUC(0-t) (human, in vivo, <180 mg/day (n = 181), read-out: AUC0-24, Mean): 90 µg·h/mL
- AUC(0-t) (human, in vivo, <180 mg/day (n = 181), read-out: AUC0-24, Median): 73.6 µg·h/mL
- clearance (human, in vivo, <180 mg/day (n = 181), read-out: CL, Mean (converted)): 9.3 mL/min
- clearance (human, in vivo, <180 mg/day (n = 181), read-out: CL, Median (converted)): 9.17 mL/min
- Cmax (human, in vivo, <180 mg/day (n = 181), read-out: Cmax, Mean): 17800 ng/mL
- Cmax (human, in vivo, <180 mg/day (n = 181), read-out: Cmax, Median): 14300 ng/mL
- half-life (human, in vivo, <180 mg/day (n = 181), read-out: T1/2, α, Mean (converted)): 2.01 h
- half-life (human, in vivo, <180 mg/day (n = 181), read-out: T1/2, α, Median (converted)): 1.97 h
- half-life (human, in vivo, <180 mg/day (n = 181), read-out: T1/2, β, Mean (converted)): 27.4 h
- half-life (human, in vivo, <180 mg/day (n = 181), read-out: T1/2, β, Median (converted)): 27.5 h
- half-life (human, in vivo, <180 mg/day (n = 181), read-out: T1/2, γ, Mean (converted)): 376 h
- half-life (human, in vivo, <180 mg/day (n = 181), read-out: T1/2, γ, Median (converted)): 387 h
- AUC(0-t) (human, in vivo, >330 mg/day (n = 239), read-out: AUC0-24, Mean): 750 µg·h/mL
- AUC(0-t) (human, in vivo, >330 mg/day (n = 239), read-out: AUC0-24, Median): 712 µg·h/mL
- clearance (human, in vivo, >330 mg/day (n = 239), read-out: CL, Mean (converted)): 7.35 mL/min
- clearance (human, in vivo, >330 mg/day (n = 239), read-out: CL, Median (converted)): 6.68 mL/min
- Cmax (human, in vivo, >330 mg/day (n = 239), read-out: Cmax, Mean): 106000 ng/mL
- Cmax (human, in vivo, >330 mg/day (n = 239), read-out: Cmax, Median): 105000 ng/mL
- half-life (human, in vivo, >330 mg/day (n = 239), read-out: T1/2, α, Mean (converted)): 2.45 h
- half-life (human, in vivo, >330 mg/day (n = 239), read-out: T1/2, α, Median (converted)): 2.35 h
- half-life (human, in vivo, >330 mg/day (n = 239), read-out: T1/2, β, Mean (converted)): 31.4 h
- half-life (human, in vivo, >330 mg/day (n = 239), read-out: T1/2, β, Median (converted)): 29.3 h
- half-life (human, in vivo, >330 mg/day (n = 239), read-out: T1/2, γ, Mean (converted)): 353 h
- half-life (human, in vivo, >330 mg/day (n = 239), read-out: T1/2, γ, Median (converted)): 347 h
- clearance (human, in vivo, healthy subjects, Multiple Dose (n = 109), read-out: CL (converted)): 5.15 mL/min
- half-life (human, in vivo, healthy subjects, Multiple Dose (n = 109), read-out: T1/2, α (converted)): 2.82 h
- half-life (human, in vivo, healthy subjects, Multiple Dose (n = 109), read-out: T1/2, β (converted)): 33 h
- half-life (human, in vivo, healthy subjects, Multiple Dose (n = 109), read-out: T1/2, γ (converted)): 320 h
- clearance (human, in vivo, healthy subjects, Single Dose (n = 91), read-out: CL (converted)): 6.7 mL/min
- half-life (human, in vivo, healthy subjects, Single Dose (n = 91), read-out: T1/2, α (converted)): 2.25 h
- half-life (human, in vivo, healthy subjects, Single Dose (n = 91), read-out: T1/2, β (converted)): 19.8 h
- half-life (human, in vivo, healthy subjects, Single Dose (n = 91), read-out: T1/2, γ (converted)): 316 h
